Experimental data as given in patent US8318217B2, “Compositions comprising an anti-inflammatory blend” (Johnson & Johnson Consumer Companies, Inc., priority 2009, dated 2012).
≈ marks a conversion by molar mass, not a printed value. Like-named read-outs stand apart in the source and are kept apart here.

Assays:
NFκB = assay: NFκB-INHIBITION TEST (NF-κB gene reporter, TNFα-stimulated FB293 cells); assay type: cell-based, human; details: for NF-κB Gene Reporter Activation (Luminescence, L): 24 h; for NF-κB inhibition (in words): summary of Table 1; for NF-KB Activity (10 ug/ml): Tables 3a and 3b
Experimental: As used herein, “NFκB-inhibitor” means a compound that inhibits the cell transcription factor nuclear kappa-B (NFκB). […] The compound need not provide the recited Percent NFκB Inhibition at all concentrations from 1 microgram per milliliter to 100 micrograms per milliliter, but provides the recited Percent NFκB Inhibition at least one concentration in this range.
The NFκB-INHIBITION TEST is conducted in the following manner. FB293 cells, a stable transfected human epithelial cell line containing the gene reporter for NF-κB are used. They may be obtained from, e.g., Panomics (Fremont, Calif.). FB293 are plated at a density of 5×10^4 cells/mL in a suitable medium, e.g., Dulbecco's modified Eagle's medium (DMEM) supplemented with 10% fetal bovine serum (Invitrogen, San Diego, Calif.). The FB293 cells are stimulated with 100 ng/mL of Tumor Necrosis Factor-α (TNFα, available from Sigma-Aldrich of St Louis, Mo.) in the presence of the test sample. Separately, a control sample is tested wherein no test sample is applied. Following a 24-hour incubation at 37° C. with 5% CO2, cells are lysed with 40 μl of reporter lysis buffer (Promega, Madison, Wis.). A 20-μl aliquot of the lysate is assayed using a luciferase assay kit (Promega) and counted for 10 s in a Lmax luminometer (Molecular Devices, Sunnyvale, Calif.) with the data represented as the relative light unit/second. Percent NFκB Inhibition of the test sample is calculated as: NFκB Inhibition=[1−(Lsample/Lcontrol)]*100 where Lsample is the luminescence of the sample and Lcontrol is the luminescence of the control.
The NFκB-INHIBITION TEST described above was performed on test samples of Bay 11-7082 (Sigma-Aldrich, St. Louis, Mo.), Tetrahydrocurcuminoids CG (Sabinsa Corporation, Piscataway, N.J.), as well as various concentrations of 4-hexylresorcinol.
The NFκB-INHIBITION TEST described above was performed on a series of substituted resorcinols each having a concentration of 10 μg/ml.

IL-8 = IL-8 ASSAY (IL-8 cytokine release in KB cells); assay type: cell-based, human
Experimental: (§1) The IL-1α ASSAY was conducted as follows. KB cells were obtained from ATCC (ATCC#CCL-17, Manassas, Va.) and were plated in 96-well tissue culture treated plates at a density of 5000 cells/well in Dulbecco's modified Eagle's medium (DMEM) supplemented with 10% fetal bovine serum (Invitrogen Corp., San Diego, Calif.). After 48 hours, cells were treated with the agents described below at indicated concentrations for 24 hours, following which supernatants were collected and analyzed for IL-1α cytokine release using commercially available kits (Millipore Corp., Billerica, Mass.).
An IL-8 ASSAY was performed on a series of compositions using the method described in Example 5, except that the cytokine analyzed for was IL-8. Percent reduction in IL-8 was calculated for each sample. For samples containing a combination of an NF-κB inhibitor and an anti-inflammatory compound, the percent reduction in IL-8 relative to the percent reduction in IL-8 for the corresponding dose of anti-inflammatory compound is reported.

IL-1α = IL-1α ASSAY (IL-1α cytokine release in KB cells); assay type: cell-based, human; details: for Increase in IL-1α over untreated control (normalized): normalized to 4-hexylresorcinol 20 μg/mL
Experimental: An IL-1α ASSAY was performed on a plurality of agents to investigate the release of the pro-inflammatory mediator, IL-1α cytokine, in human epithelial cells.
as §1
Further IL-1α ASSAYS as described in Example 5 were performed. For ease of comparison, reported increases in IL-1α for 4-hexylresorcinol, phloretin, and combinations thereof were normalized to 4-hexylresorcinol (20 μg/mL, Comparative Example 2). Reported increases in IL-1α for tetrahydrocurcuminoids, feverfew, and combinations thereof were normalized to tetrahydrocurcuminoids (20 μg/mL, Comparative Example 3).
Further IL-1α ASSAYS as described in Example 5 were performed. For ease of comparison, reported increases in IL-1α were normalized to 4-hexylresorcinol (20 μg/mL, Comparative Example 2).

Interleukin-2 = assay: ANTI-INFLAMMATORY ASSAY (cytokine production by PHA-stimulated human lymphocytes); assay type: cell-based; details: PHA 10 μg/mL stimulated human leukocytes, 48 h
Experimental: The ANTI-INFLAMMATORY ASSAY assesses the ability of an agent to reduce the production of cytokines by human lymphocytes stimulated with the T-cell receptor (TCR) activating agent phytohaemagglutinin (PHA), and is conducted in the following manner. Human leukocytes are collected from a healthy adult […] via leukopheresis, and adjusted to a density of 1×10^6 cells/mL in serum free lymphocyte growth medium (ExVivo-15, Biowhittaker, Walkersville, Md.). PBLs are stimulated with 10 μg/mL PHA in the presence or absence of test samples following published methods (Hamamoto Y., et al. Exp Dermatol 2:231-235, 1993). Following a 48-hour incubation at 37° C. with 5% CO2, the supernatant is removed and evaluated for cytokine content using commercially available multiplex cytokine detection kit.

[1] = Homo sapiens, 10 μg/ml, series of substituted resorcinols, Table 2, read-out: Percent NF-κB Inhibition
[2] = Homo sapiens, read-out: Percent NF-κB Inhibition
[3] = Homo sapiens, read-out: Percent NFκB Inhibition

`COc1cccc(OC)c1` [1,3-Dimethoxybenzene, reference compound] showed an inhibition at 10 µg/mL (NFκB; [1]) of -1.7%.

In the case of `O=C(O)/C=C/c1ccc(O)cc1O` [2,4-DIHYDROXYCINNAMIC Acid], the inhibition at 10 µg/mL (NFκB; [1]) is reported as -1.7%.

`O=Nc1ccc(O)c(N=O)c1O` [2,4-Dinitrosorcinol] was tested, and the inhibition at 10 µg/mL (NFκB; [2]) was 51.8%.

`CCC(=O)c1ccc(O)cc1O` [2′,4′-Dihydroxypropiophenone] was tested, and the inhibition at 10 µg/mL (NFκB; [1]) was -0.7%.

`COc1cccc(O)c1` [3-Methoxyphenol, reference compound] showed an inhibition at 10 µg/mL (NFκB; [1]) of 0%.

`CCCCCC(=O)c1ccc(O)cc1O` [4-Caproylresorcinol] showed an inhibition at 10 µg/mL (NFκB; [1]) of 10.2%.

Compound `Oc1ccc(Cl)c(O)c1` [4-Chloroesorcinol] has an inhibition at 10 µg/mL (NFκB; [1]) of 51.6%.

`CCCCCCCCCCCCc1ccc(O)cc1O` [4-Dodecylresorcinol] was tested, and the inhibition at 10 µg/mL (NFκB; [1]) was 20.9%.

`CCCCCCc1ccc(O)cc1O` [4-Hexylresorcinol] was tested, and the “Mean of IL-8 Release” value (IL-8; single agent 10 μg/mL, untreated 84.46, Table 9) was 73.23 pg/mL, the “Mean of IL-8 Release” value (IL-8; single agent 20 μg/mL, untreated 46.05, Table 8) was 14.58 pg/mL and the “Mean of IL-8 Release” value (IL-8; single agent 20 μg/mL, untreated 84.46, Table 9) was 27.05 pg/mL. For the same compound, the “Mean of IL-1α Release” value (IL-1α; 20 μg/mL, 24 h, KB cells, untreated 0.72) was 21.34 pg/mL, the “Increase in IL-1α over untreated control (normalized)” value (from here on “Increase in IL-1α … (normalized)”) (IL-1α; single agent 20 μg/mL, Table 6) was 100 and the “Increase in IL-1α … (normalized)” value (IL-1α; single agent 20 μg/mL, Table 7) was 100. The “release of cytokine IL-1α (in words)” value (IL-1α; summary of Table 5) was “can increase the release of cytokine IL-1α”, the “NF-κB Gene Reporter Activation (Luminescence, L)” value (“NF-κB Gene Reporter Activation” for short) (NFκB; 1 μg/ml, TNFα 100 ng/ml stimulated FB293 cells) was 106.1 ± 1.9 and the “NF-κB Gene Reporter Activation” value (NFκB; 5 μg/ml, TNFα 100 ng/ml stimulated FB293 cells) was 55.1 ± 1.7. The “NF-κB Gene Reporter Activation” value (NFκB; 10 μg/ml, TNFα 100 ng/ml stimulated FB293 cells) was 29.3 ± 9.2, the “NF-κB Gene Reporter Activation” value (NFκB; 50 μg/ml, TNFα 100 ng/ml stimulated FB293 cells, relative light unit/second per method) was 9.3 ± 0.9 and the inhibition at 10 µg/mL (NFκB; [2]) was 92.4%. For the same compound, the inhibition at 1 µg/mL (NFκB; [3]) was 1.9%, the inhibition at 5 µg/mL (NFκB; [3]) was 50.9% and the inhibition at 10 µg/mL (NFκB; [3]) was 72.9%. For the same compound, the inhibition at 50 µg/mL (NFκB; [3]) was 91.4% and the “NF-κB inhibition (in words)” value (NFκB) was “substantial reduction in NFκB activation”.

With `CCCCCCCCc1ccc(O)cc1O` [4-Octylresorcinol] the inhibition at 10 µg/mL (NFκB; [1]) was 99.5%.

`Cc1ccc(S(=O)(=O)/C=C/C#N)cc1` [Bay 11-7082, (E)-3-(4-methylphenylsulfonyl)-2-propenenitrile, reference compound] was tested, and the “NF-κB Gene Reporter Activation” value (NFκB; 25 uM, FB293 cells) was 11.3 ± 5.6, the inhibition at 25 µM (NFκB; Homo sapiens, 25 uM, Table 1, read-out: Percent NFκB Inhibition) was 89.5% and the “NF-κB inhibition (in words)” value (NFκB) was “strong NF-κB inhibition”.

`CCCCCCCCCCCC1c2cc(c(O)cc2O)C(CCCCCCCCCCC)c2cc(c(O)cc2O)C(CCCCCCCCCCC)c2cc(c(O)cc2O)C(CCCCCCCCCCC)c2cc1c(O)cc2O` (stereo not shown) [C-Undecylcalix[4]-resorcinarene] was tested, and the “Percent NF-κB Inhibition” value (NFκB; 10 μg/ml, series of substituted resorcinols, Table 2) was 4.87%.

With `C=CC(C)(C)c1cc(/C=C/C(=O)c2ccc(O)cc2)c(OC)cc1O` [Licochalcone] the “Anti-Inflammatory Activity (IC50 ug/ml)” value (Interleukin-2) was 54.1 µg/mL and the “NF-KB Activity (10 ug/ml)” value (NFκB) was 0%.

In the case of `Oc1ccc(CCc2ccccc2)c(O)c1` [Phenethylresorinol], the inhibition at 10 µg/mL (NFκB; [1]) is reported as 31.8%.

For `O=C(CCc1ccc(O)cc1)c1c(O)cc(O)cc1O` [Phloretin], the IC50 (Interleukin-2; Leukocyte, read-out: Anti-Inflammatory Activity (IC50 ug/ml)) was 19.9 µg/mL (≈ 72.6 µM), the “Increase in IL-1α … (normalized)” value (IL-1α; single agent 10 μg/mL, Table 6) was 3.82 and the “Increase in IL-1α … (normalized)” value (IL-1α; single agent 50 μg/mL, Table 6) was 2.39. The “Increase in IL-1α … (normalized)” value (IL-1α; single agent 100 μg/mL, Table 6) was 3.34 and the “NF-KB Activity (10 ug/ml)” value (NFκB) was 0%.

`CC1CCCC(=O)CCCCCc2cc(O)cc(O)c2C(=O)O1` (stereo not shown) [Zearalanone] was tested, and the inhibition at 10 µg/mL (NFκB; [2]) was 51%.

`CC1CCCC(O)CCCCCc2cc(O)cc(O)c2C(=O)O1` (stereo not drawn) [β-Zearalanol] was tested, and the inhibition at 10 µg/mL (NFκB; [2]) was 76.6%.

For `C[C@H]1CCC[C@@H](O)CCC/C=C/c2cc(O)cc(O)c2C(=O)O1` [β-Zearalenol], the inhibition at 10 µg/mL (NFκB; [2]) was 87.1%.

In the case of Madecassoside [reference compound], the “Anti-Inflammatory Activity (IC50 ug/ml)” value (Interleukin-2) is reported as 77.3 µg/mL, the “Increase in IL-1α … (normalized)” value (IL-1α; single agent 10 μg/mL, Table 7) is reported as 43.02 and the “Increase in IL-1α … (normalized)” value (IL-1α; single agent 50 μg/mL, Table 7) is reported as 41.59. For the same compound, the “Increase in IL-1α … (normalized)” value (IL-1α; single agent 100 μg/mL, Table 7) was 44.24 and the “NF-KB Activity (10 ug/ml)” value (NFκB) was 0%.
